The record followed here is ChEMBL document CHEMBL2429821, “A Casein kinase 1/Checkpoint kinase 1 pyrazolo-pyridine protein kinase inhibitor as novel activator of the p53 pathway” (Bioorg Med Chem Lett, 2013).

One may read the IC50 as the point on the concentration scale where inhibition reaches its midpoint.

Assay [1] addresses T1, Inhibitor of nuclear factor kappa-B kinase subunit beta (Homo sapiens) (UniProt O14920).
T1 sequence (whole entry): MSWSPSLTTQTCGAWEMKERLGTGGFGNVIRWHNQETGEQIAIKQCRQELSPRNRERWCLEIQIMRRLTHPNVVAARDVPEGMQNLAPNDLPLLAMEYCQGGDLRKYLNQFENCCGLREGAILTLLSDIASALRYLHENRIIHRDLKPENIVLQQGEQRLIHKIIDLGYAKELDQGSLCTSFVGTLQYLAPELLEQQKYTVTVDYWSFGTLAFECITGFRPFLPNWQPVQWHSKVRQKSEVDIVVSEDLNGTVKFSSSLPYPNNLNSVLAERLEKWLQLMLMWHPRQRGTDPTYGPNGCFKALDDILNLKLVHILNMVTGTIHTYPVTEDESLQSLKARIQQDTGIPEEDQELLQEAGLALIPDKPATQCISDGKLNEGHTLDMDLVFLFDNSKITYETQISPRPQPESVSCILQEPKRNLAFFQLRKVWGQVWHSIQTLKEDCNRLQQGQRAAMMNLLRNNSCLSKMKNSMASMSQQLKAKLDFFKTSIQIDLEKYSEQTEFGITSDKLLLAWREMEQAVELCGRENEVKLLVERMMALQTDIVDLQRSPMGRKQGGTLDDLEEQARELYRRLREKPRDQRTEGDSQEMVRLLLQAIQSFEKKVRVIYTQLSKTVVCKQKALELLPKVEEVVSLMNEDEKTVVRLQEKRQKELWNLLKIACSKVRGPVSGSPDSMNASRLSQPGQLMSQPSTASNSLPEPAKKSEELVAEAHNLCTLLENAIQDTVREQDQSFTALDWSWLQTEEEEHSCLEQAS
Description: Inhibition of human IKKbeta assessed as residual activity at 10 uM relative to control.

In assay [2] the target is Ribosomal protein S6 kinase beta-1 (Homo sapiens) (UniProt P23443). Briefly: Inhibition of human S6K1 assessed as residual activity at 1 uM relative to control.
Sequence of Ribosomal protein S6 kinase beta-1 (Homo sapiens) (P23443 whole entry, looked up): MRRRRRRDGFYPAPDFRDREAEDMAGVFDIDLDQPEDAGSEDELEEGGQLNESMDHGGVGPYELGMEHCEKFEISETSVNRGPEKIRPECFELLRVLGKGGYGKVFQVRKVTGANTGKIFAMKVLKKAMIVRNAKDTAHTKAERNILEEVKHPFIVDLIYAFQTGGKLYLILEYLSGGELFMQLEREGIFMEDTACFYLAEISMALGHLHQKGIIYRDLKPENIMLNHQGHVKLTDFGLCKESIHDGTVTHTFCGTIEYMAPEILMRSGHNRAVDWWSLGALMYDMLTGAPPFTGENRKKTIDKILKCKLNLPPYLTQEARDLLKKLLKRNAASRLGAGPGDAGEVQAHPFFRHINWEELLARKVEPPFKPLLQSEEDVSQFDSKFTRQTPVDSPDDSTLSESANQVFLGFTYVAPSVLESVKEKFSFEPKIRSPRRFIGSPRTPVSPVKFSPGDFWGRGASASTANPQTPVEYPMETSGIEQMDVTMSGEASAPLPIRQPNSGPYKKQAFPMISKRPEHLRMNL
The target of assay [3] is Mitogen-activated protein kinase 14 (Homo sapiens, UniProt Q16539). Description: Inhibition of human p38alpha MAPK in presence of 50 uM ATP.
Sequence of Mitogen-activated protein kinase 14 (Q16539 whole entry): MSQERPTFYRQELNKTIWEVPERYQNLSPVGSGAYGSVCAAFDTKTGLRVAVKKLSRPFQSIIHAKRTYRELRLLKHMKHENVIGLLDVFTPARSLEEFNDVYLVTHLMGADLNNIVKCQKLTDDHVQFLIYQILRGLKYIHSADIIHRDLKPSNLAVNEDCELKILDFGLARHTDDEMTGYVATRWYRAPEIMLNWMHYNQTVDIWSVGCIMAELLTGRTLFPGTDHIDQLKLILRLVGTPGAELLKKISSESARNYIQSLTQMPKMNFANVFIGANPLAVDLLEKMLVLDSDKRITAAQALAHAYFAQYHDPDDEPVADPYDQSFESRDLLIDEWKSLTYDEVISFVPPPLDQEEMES
The species named for the next assay is Homo sapiens. Description: Inhibition of human VEGFR assessed as residual activity at 1 uM relative to control.
Assay [4] deals with Serine/threonine-protein kinase pim-2 (Homo sapiens) (UniProt Q9P1W9). Briefly: Inhibition of human PIM2 assessed as residual activity at 1 uM relative to control.
Sequence of Serine/threonine-protein kinase pim-2 (Homo sapiens) (Q9P1W9 whole entry, looked up): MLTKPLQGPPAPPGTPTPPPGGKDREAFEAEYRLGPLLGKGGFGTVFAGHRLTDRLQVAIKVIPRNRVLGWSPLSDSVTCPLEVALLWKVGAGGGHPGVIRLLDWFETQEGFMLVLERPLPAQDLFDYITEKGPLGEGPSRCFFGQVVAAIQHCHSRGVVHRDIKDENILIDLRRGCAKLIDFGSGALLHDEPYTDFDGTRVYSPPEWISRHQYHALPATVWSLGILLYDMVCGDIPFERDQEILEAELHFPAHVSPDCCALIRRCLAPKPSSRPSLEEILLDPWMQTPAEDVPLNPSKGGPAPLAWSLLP
The target in assay [5] is Serine/threonine-protein kinase N2 (Homo sapiens) (UniProt Q16513). Description: Inhibition of human PRK2 assessed as residual activity at 10 uM relative to control.
Sequence of Serine/threonine-protein kinase N2 (Homo sapiens) (Q16513 whole entry, looked up): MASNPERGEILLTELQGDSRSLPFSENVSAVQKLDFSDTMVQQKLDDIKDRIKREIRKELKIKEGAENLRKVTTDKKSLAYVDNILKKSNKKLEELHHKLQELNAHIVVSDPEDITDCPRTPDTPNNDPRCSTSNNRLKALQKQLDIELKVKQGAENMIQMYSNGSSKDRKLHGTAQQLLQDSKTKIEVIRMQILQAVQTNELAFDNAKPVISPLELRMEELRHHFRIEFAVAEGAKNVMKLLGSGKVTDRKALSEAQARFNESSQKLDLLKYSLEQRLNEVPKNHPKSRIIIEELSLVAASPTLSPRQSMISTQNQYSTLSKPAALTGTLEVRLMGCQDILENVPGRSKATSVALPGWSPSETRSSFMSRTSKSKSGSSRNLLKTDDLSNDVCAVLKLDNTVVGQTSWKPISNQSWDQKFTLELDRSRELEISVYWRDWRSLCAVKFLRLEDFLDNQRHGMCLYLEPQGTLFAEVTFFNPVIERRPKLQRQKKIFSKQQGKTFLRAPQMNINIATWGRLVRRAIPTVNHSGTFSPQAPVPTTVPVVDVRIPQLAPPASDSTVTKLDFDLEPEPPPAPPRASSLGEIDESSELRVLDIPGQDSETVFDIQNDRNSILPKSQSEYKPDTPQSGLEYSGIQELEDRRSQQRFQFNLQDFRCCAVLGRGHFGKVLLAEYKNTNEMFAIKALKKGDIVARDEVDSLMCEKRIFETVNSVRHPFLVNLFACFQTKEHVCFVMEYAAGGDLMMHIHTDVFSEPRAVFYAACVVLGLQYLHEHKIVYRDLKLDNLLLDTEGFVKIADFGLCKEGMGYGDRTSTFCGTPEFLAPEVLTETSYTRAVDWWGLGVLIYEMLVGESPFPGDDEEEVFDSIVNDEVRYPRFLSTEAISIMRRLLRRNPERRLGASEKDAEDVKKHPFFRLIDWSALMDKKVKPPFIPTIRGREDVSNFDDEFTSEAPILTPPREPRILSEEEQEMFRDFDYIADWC
Assay [6] concerns the target T2, Mitogen-activated protein kinase 12 (Homo sapiens) (UniProt P53778).
T2 sequence (whole entry): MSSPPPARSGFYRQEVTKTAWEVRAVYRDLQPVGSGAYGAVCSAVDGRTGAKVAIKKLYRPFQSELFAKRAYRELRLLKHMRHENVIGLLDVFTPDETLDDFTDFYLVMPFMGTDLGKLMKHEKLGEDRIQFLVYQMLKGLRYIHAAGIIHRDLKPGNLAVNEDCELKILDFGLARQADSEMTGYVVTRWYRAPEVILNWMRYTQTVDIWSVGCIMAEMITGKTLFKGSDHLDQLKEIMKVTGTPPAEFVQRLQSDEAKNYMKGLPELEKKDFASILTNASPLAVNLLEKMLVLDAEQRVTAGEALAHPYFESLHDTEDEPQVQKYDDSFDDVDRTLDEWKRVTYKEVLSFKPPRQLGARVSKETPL
Description: Inhibition of human p38gamma MAPK assessed as residual activity at 1 uM relative to control.

The subject of assay [7] is A-375. Description: Cell cycle arrest in human A375 cells assessed as accumulation at sub-G1 phase at 80 uM after 48 hrs by FACS flow cytometric analysis (reference value: 2.17%). Type of assay: functional. On the technique in general: Flow cytometry measures light scatter and fluorescence of single cells or particles in a stream.
For assay [8], the target named is T2, Mitogen-activated protein kinase 12 (Homo sapiens). Briefly: Inhibition of human p38gamma MAPK assessed as residual activity at 10 uM relative to control.
For assay [9], the target named is Mitogen-activated protein kinase 1 (Homo sapiens) (UniProt P28482). Briefly: Inhibition of human MAPK2 assessed as residual activity at 10 uM relative to control.
Sequence of Mitogen-activated protein kinase 1 (Homo sapiens) (P28482 whole entry, canonical isoform): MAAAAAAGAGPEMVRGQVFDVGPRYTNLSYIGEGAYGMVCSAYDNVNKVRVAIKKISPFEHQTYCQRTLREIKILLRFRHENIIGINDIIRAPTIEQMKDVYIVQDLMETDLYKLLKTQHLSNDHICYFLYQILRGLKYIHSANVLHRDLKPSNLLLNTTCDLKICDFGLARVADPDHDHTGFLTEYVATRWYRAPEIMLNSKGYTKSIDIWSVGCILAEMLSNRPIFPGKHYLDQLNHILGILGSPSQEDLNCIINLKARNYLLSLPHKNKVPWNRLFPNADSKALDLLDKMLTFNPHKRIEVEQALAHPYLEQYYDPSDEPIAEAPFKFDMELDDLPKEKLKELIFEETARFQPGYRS
Assay [10] addresses Casein kinase I isoform delta (Rattus norvegicus, UniProt Q06486). Briefly: Inhibition of rat CK1delta in presence of 20 uM ATP.
For assay [11], the system named is A-375. Description: Cell cycle arrest in human A375 cells assessed as accumulation at S phase at 80 uM after 48 hrs by FACS flow cytometric analysis (reference value: 25.1%). The format is functional.
Assay [12] concerns the target T3, Serine/threonine-protein kinase TBK1 (Homo sapiens) (UniProt Q9UHD2).
T3 sequence (whole entry): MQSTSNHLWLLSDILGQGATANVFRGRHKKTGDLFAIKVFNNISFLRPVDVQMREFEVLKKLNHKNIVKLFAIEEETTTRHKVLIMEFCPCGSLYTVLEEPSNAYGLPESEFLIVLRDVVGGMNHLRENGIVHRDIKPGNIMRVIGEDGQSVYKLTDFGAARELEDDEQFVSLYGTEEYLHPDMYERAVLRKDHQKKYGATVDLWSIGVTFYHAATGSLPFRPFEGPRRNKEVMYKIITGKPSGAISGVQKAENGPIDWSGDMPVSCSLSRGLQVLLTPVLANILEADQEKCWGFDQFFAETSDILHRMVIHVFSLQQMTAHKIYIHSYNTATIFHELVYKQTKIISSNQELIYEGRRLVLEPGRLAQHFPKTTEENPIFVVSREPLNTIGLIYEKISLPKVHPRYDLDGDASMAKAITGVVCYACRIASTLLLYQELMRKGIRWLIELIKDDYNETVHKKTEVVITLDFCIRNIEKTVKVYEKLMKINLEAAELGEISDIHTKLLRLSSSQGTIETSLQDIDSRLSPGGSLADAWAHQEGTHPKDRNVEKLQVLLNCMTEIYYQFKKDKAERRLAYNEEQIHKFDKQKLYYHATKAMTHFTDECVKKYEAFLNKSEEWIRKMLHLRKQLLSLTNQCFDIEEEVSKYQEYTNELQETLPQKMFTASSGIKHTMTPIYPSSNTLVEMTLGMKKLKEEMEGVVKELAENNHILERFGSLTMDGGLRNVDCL
Briefly: Inhibition of human TBK1 assessed as residual activity at 10 uM relative to control.

Assay [13] concerns the target Maternal embryonic leucine zipper kinase (Homo sapiens) (UniProt Q14680). Description: Inhibition of human MELK assessed as residual activity at 1 uM relative to control.
Assay [14] deals with A-375. Briefly: Cell cycle arrest in human A375 cells assessed as accumulation at G0-G1 phase at 80 uM after 48 hrs by FACS flow cytometric analysis (reference value: 55.4%). Type of assay: functional.

Sequence of Maternal embryonic leucine zipper kinase (Homo sapiens) (Q14680 whole entry, looked up): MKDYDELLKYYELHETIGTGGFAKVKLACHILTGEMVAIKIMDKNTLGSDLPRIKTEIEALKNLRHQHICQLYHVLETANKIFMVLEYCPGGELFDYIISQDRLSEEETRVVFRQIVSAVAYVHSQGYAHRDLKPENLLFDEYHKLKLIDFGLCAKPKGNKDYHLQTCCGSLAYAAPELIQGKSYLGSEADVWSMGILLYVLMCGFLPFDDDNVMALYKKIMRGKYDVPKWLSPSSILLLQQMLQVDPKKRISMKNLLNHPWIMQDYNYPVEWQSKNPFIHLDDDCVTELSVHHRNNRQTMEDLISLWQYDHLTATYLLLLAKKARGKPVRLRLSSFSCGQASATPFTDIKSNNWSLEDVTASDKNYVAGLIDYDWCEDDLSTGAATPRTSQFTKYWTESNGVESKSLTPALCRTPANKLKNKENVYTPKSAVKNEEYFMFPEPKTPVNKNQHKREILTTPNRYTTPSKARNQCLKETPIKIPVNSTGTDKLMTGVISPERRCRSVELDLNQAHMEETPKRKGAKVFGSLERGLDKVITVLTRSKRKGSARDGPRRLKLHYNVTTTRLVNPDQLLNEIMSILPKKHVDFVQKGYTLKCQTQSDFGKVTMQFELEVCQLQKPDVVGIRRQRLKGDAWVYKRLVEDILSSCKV
Sequence of Casein kinase I isoform delta (Q06486 whole entry, canonical isoform): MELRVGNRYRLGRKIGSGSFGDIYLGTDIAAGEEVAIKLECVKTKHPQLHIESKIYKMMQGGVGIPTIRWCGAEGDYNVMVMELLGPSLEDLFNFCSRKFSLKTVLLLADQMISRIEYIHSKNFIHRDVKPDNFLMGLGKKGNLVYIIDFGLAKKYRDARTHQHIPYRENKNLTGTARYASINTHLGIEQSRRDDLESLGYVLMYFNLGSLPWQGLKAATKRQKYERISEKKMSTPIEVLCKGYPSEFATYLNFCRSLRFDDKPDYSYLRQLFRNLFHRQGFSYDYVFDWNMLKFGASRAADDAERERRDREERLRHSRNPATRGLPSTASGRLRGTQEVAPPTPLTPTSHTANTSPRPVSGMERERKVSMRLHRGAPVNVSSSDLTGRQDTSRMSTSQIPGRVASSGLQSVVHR

In the case of `CC(=O)Nc1nccc(-c2c(-c3ccccc3)noc2C)n1`, the Activity in assay [1] turned out to be 80.4%; in [2], 108%; in the assay listed under Homo sapiens, 79.5%; in [4], 119%; in assay [5] it was 96.5%; in assay [6], 97.1%. The Activity with A-375 [7] was 3.32%; in assay [8] it was 93%; in [9], 93%; in the assay on A-375 [11], 21.9%; in assay [12], 105%; in assay [13], 103%. Further, in the assay on A-375 [14], the Activity is 58.5%. Moreover, the IC50 was 2040 nM in assay [3] (read-out: IC50) and 838 nM in assay [10].
On to `CCCC(=O)Nc1n[nH]c2ncc(-c3cccnc3)cc12`, for which the Activity was 90% in assay [1]; 85% in assay [2]; 76% in assay [5]; 70% in assay [12]; 115% in [13].
For `CC(=O)Nc1cccc(-c2cnc3[nH]nc(C)c3c2)c1`, the Activity came out at 72% in assay [1]; 90.6% in [2]; 54.5% in the assay listed under Homo sapiens; 79% in assay [4]; 42.2% in [5]; 117% in assay [6]. Moreover, the Activity in the assay on A-375 [7] is 45.7%; in assay [8], 95.6%; in assay [9], 82.7%; in the assay with A-375 [11], 11.6%; in [12], 48.2%; in [13] it was 76.1%. In the assay with A-375 [14], the Activity is 5.36%. For the same molecule, the IC50 result is “Not Active” in assay [3] and 893 nM in assay [10].
